{"source": "patent EP4578449A1", "about": "“PHARMACEUTICAL COMBINATION OF FAK INHIBITOR AND MICROTUBULE INHIBITOR AND USE THEREOF” (Inxmed (Nanjing) Co., Ltd., priority 2022, dated 2024)", "assay_type_in_all_cases": "cell-based", "key": {"[1]": {"tested_on": "mouse breast cancer 4T1 cells", "experiment": "Eribulin and IN10018: microscopy and CRT/Annexin-V/PI and GRP94 flow cytometry", "conditions": "48 hours, IN10018 5 µM, Eribulin 0.15 µM or 0.45 µM, alone or combined", "procedure": "(§1) 4T1 cells were cultured in monolayer in vitro under the following conditions: RPMI-1640 medium with 10% fetal bovine serum, 37 °C, 5% CO2. Trypsin was used for routine digestion and passage treatment two to three times a week. When the cells were in the exponential growth phase and the adherent confluence reached 80%-90%, the cells were harvested and plated.\n4T1 cells were digested with trypsin and then collected and counted. Based on the counting results, the cells were diluted with RPMI-1640+10% FBS to a concentration of 50,000 cells per milliliter. Then the cells were plated in 12-well cell culture plates, with 2 ml of cell suspension per well, i.e., 100,000 cells. After plating, the cells were cultured in a 37°C and 5% CO2 incubator.\n(§2) After 24 hours of plating, test compounds IN10018 and Eribulin were added to different wells, respectively.\n(§3) After 48 hours of drug action, the cells were photographed using a microscope, and then trypsinized and collected for flow cytometry staining.\nThe cells were washed twice with flow buffer (DPBS + 2% FBS), and each group of cells was divided into two equal parts. In one part, 0.5 µL of AF647 Anti-Calreticulin Antibody was added to each well, and mixed. The cells were incubated at 4°C in the dark for 20 min. […]\n(§4) After the assay, the cell positive rate was analyzed by Flowjo (V10) software."}, "MDA-MB-231 cells [2]": {"tested_on": "MDA-MB-231 cells", "experiment": "FAK silencing combined with Eribulin, Calreticulin (ICD target) by flow cytometry", "conditions": "MDA-MB-231 cells transfected with FAK siRNA 50 nM for 24 hours, then 0.15 µM Eribulin 48 hours; vs control siRNA", "procedure": "(§5) • 1. FAK silencing combined with Eribulin promotes apoptosis of breast cancer cells MDA-MB-231 The siRNA technology was used in the in vitro assays to reduce the expression level of FAK, and combined with Eribulin for 48 hours; flow cytometry was used to detect apoptosis in control and FAK silenced cells. • 2. FAK silencing combined with Eribulin can effectively promote the production of ICD in breast cancer cells MDA-MB-231 The siRNA technology was used in the in vitro assay to reduce the expression level of FAK, and combined with Eribulin for 48 hours. Flow cytometry was used to detect the expression of Calreticulin, the main target of ICD.\n(§6) Recombinant Alexa Fluor® 647 fluorescent Anti-Calreticulin antibody (Abcam, ab196159), Annexin V apoptosis detection kit (Invitrogen, A35110).\n(§7) FAK siRNA was provided by Gene Pharma, and the sequence is shown in the following table: • F: […]; • R: […] • Assay instruments: Fluorescence microscope (Olympus U-HGLGPS). Chemiluminescence imager (BIORAD chemidoc touch).\n(§8) • 1. […] The cells were stained using Annexin V kit and detected by flow cytometry. The early and late apoptosis values were counted, compared with those of the DMSO control group, and plotted using Graphpad 8.0. […] The cells were fluorescent stained with Calreticulin antibody, and the staining results were analyzed by flow cytometry."}, "[3]": {"tested_on": "mouse ovarian epithelial carcinoma ID8 cells", "experiment": "Eribulin and IN10018: microscopy and CRT/Annexin-V/PI flow cytometry", "conditions": "48 hours, IN10018 10 µM, Eribulin 0.045 µM, alone or combined", "procedure": "as §1, with “ID8 cells and TOV-21G” for “4T1”, “vitro. ID8 cells were cultured in DMEM medium with 10% fetal bovine serum. TOV-21G cells were cultured in” for “vitro under the following conditions:”, “serum. Both were cultured in a” for “serum,”, “CO2 incubator.” for “CO2.”\n(§9) ID8 cells and TOV-21G cells were digested with trypsin and then collected and counted. Based on the counting results, the cells were diluted with the corresponding complete culture medium to a concentration of 50,000 cells per milliliter. Then the cells were plated in 12-well cell culture plates, with 2 ml of cell suspension per well, i.e., 100,000 cells.\n(§10) After plating, the cells were cultured in a 37°C and 5% CO2 incubator.\nas §2, §3\n(§11) The cells were washed twice with flow buffer (DPBS + 2% FBS). 0.5 µL of AF647 Anti-Calreticulin Antibody was added to each well, and mixed. The cells were incubated at 4°C in the dark for 20 min. After washing once with flow buffer, 195 µL of Annexin-V-FITC binding solution was added, and the cells were gently mixed well. 5 µL of Annexin-V-FITC antibody was added. After further mixing, 10 µL of PI dye was added and mixed well. The cells were incubated at room temperature in the dark for 15 min. The cells were then subjected to flow cytometry.\nas §4"}, "[4]": {"tested_on": "human ovarian epithelial carcinoma TOV-21G cells", "experiment": "Eribulin and IN10018: microscopy and CRT/Annexin-V/PI flow cytometry", "conditions": "48 hours, IN10018 10 µM, Eribulin 0.045 µM, alone or combined", "procedure": "as §1, with “ID8 cells and TOV-21G” for “4T1”, “vitro. ID8 cells were cultured in DMEM medium with 10% fetal bovine serum. TOV-21G cells were cultured in” for “vitro under the following conditions:”, “serum. Both were cultured in a” for “serum,”, “CO2 incubator.” for “CO2.”\nas §9, §10, §2, §3, §11, §4"}, "[5]": {"tested_on": "mouse breast cancer 4T1 cells", "experiment": "Docetaxel/Eribulin and Defactinib: microscopy and CRT/Annexin-V/PI flow cytometry", "conditions": "48 hours, Defactinib 5 µM, Docetaxel 0.3 µM, Eribulin 0.1 µM, alone or combined with Defactinib", "procedure": "4T1 cells were cultured in a monolayer in vitro in RPMI-1640 medium with 10% fetal bovine serum in a 37 °C, 5% CO2 incubator. Trypsin was used for routine digestion and passage treatment two to three times a week. When the cells were in the exponential growth phase and the adherent confluence reached 80%-90%, the cells were harvested and plated.\nas §9, with “4T1” for “ID8 cells and TOV-21G”, “trypsin,” for “trypsin”, “then the cells were” for “then”\nas §10\nAfter 24 hours of plating, the test compounds Defactinib, Docetaxel and Eribulin were added to different wells, respectively.\nas §3\nThe cells were washed twice with flow buffer (DPBS + 2% FBS). 0.5 µL of AF647 Anti-Calreticulin Antibody was added to each well, and mixed well. The cells were incubated at 4°C in the dark for 20 min. […]\nas §4"}, "MDA-MB-231 cells [6]": {"tested_on": "MDA-MB-231 cells", "experiment": "FAK silencing combined with Eribulin, Annexin V apoptosis by flow cytometry", "conditions": "MDA-MB-231 cells transfected with FAK siRNA 50 nM for 24 hours, then 0.15 µM Eribulin 48 hours; FAK silencing group compared with control group", "procedure": "as §5, §6, §7, §8"}, "[7]": {"tested_on": "mouse colon cancer CT26 cells", "experiment": "Docetaxel/Eribulin/Paclitaxel and Defactinib: microscopy and CRT/Annexin-V/PI flow cytometry", "conditions": "48 hours, Defactinib 5 µM, Docetaxel 0.3 µM, Eribulin 0.3 µM, Paclitaxel 6 µM, alone or combined with Defactinib", "procedure": "as §1, with “CT26” for “4T1”, “37°C,” for “37 °C,”\nas §9, with “CT26” for “ID8 cells and TOV-21G”, “trypsin,” for “trypsin”, “then the cells were” for “then”\nas §10\nAfter 24 hours of plating, the test compounds Docetaxel, Eribulin, Paclitaxel and Defactinib were added to different wells, respectively.\nas §3\nas §11, with “mixed well.” for “mixed.”\nas §4"}}, "data": [{"smiles": "C=C1C[C@@H]2CC[C@@]34C[C@H]5O[C@H]6[C@@H](O3)[C@H]3O[C@H](CC[C@@H]3O[C@H]6[C@H]5O4)CC(=O)C[C@@H]3[C@@H](OC)[C@@H](C[C@H](O)CN)O[C@H]3C[C@H]3O[C@@H](CC[C@@H]1O2)C[C@@H](C)C3=C", "note": "[Eribulin]", "values": [{"measurement": "cell status (cell death / cell viability) under a microscope", "setting": "[1]", "result": "obvious"}, {"measurement": "release and exposure of Calreticulin", "setting": "MDA-MB-231 cells [2]", "result": "significantly enhanced"}, {"measurement": "cell status (cell death / cell viability) under a microscope", "setting": "[3]", "result": "obvious"}, {"measurement": "cell status (cell death / cell viability) under a microscope", "setting": "[4]", "result": "obvious"}, {"measurement": "cell status (cell death) under a microscope", "setting": "[5]", "result": "obvious"}, {"measurement": "early and late apoptosis (Annexin V kit)", "setting": "MDA-MB-231 cells [6]", "result": "significantly enhanced"}, {"measurement": "cell status (cell death) under a microscope", "setting": "[7]", "result": "obvious"}]}]}
